Values quoted from earlier work, collected in paper PMC8445767 (Bioorganic Chemistry, 2021).
Read-outs that look alike come from different tables or passages of the source.

Tests used:
[1] = system: herpes simplex virus type 1; conditions: read-out: IC50 against herpes simplex virus type 1
[2] = system: herpes simplex virus type 1; conditions: read-out: IC50 against herpes simplex virus type 1; remark: listed apart in the source

Substance | IC50 [1] | IC50 [2]
Aspergilli peptide D [XI] | 9.5 µM | –
Simplicilliumtide J [XIV] | – | 14 µM
